Laboratory results reported in the supplement of paper PMC10307832.

Columns and labels:
Test in all cases: relative viability (nuclei count vs DMSO), 5 days (fraction); higher = more cells survive
Masitinib + Crizotinib = compound: Cc1ccc(NC(=O)c2ccc(CN3CCN(C)CC3)cc2)cc1Nc1nc(-c2cccnc2)cs1 [Masitinib] + C[C@@H](Oc1cc(-c2cnn(C3CCNCC3)c2)cnc1N)c1c(Cl)ccc(F)c1Cl [Crizotinib] (partner 1 µM)
How it was run: (§1)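 Relative viability is defined as nuclei in treated wells over nuclei in vehicle wells. Duplicate plates were run and medians reported. Lung cancer cell lines in 1536-well plates were dosed by pin tool one day after seeding, with one drug or with a fixed anchor-drug dose plus five library-drug doses (not always all listed) in √10 steps, and nuclei were counted after 5 days.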

Masitinib + OSI-027 = compound: Cc1ccc(NC(=O)c2ccc(CN3CCN(C)CC3)cc2)cc1Nc1nc(-c2cccnc2)cs1 [Masitinib] + COc1cccc2cc(-c3nc([C@H]4CC[C@H](C(=O)O)CC4)n4ncnc(N)c34)[nH]c12 [OSI-027] (partner 0.5 µM)
How it was run: as §1

[1] = compound: CC1=CC(=CC=C1)NC2=NC(=CS2)C3=CC=NC=C3 + O=C(c1cc(Cc2n[nH]c(=O)c3ccccc23)ccc1F)N1CCN(C(=O)C2CC2)CC1 [Olaparib] (partner 8 µM)
How it was run: as §1

Masitinib + Trametinib = compound: Cc1ccc(NC(=O)c2ccc(CN3CCN(C)CC3)cc2)cc1Nc1nc(-c2cccnc2)cs1 [Masitinib] + CC(=O)Nc1cccc(-n2c(=O)n(C3CC3)c(=O)c3c(Nc4ccc(I)cc4F)n(C)c(=O)c(C)c32)c1 [Trametinib] (partner 0.02 µM)
How it was run: as §1

Row | Cell Line | relative viability (Masitinib + Crizotinib; first compound 0.01 µM) | relative viability (Masitinib + Crizotinib; first compound 0.03162 µM) | relative viability (Masitinib + Crizotinib; first compound 0.1 µM) | relative viability (Masitinib + Crizotinib; first compound 0.3162 µM) | relative viability (Masitinib + Crizotinib; first compound 1 µM) | relative viability (Masitinib + OSI-027; first compound 0.01 µM) | relative viability (Masitinib + OSI-027; first compound 0.03162 µM) | relative viability (Masitinib + OSI-027; first compound 0.1 µM) | relative viability (Masitinib + OSI-027; first compound 0.3162 µM) | relative viability (Masitinib + OSI-027; first compound 1 µM) | relative viability ([1]; first compound 0.08 µM) | relative viability ([1]; first compound 0.253 µM) | relative viability ([1]; first compound 0.8 µM) | relative viability ([1]; first compound 2.53 µM) | relative viability ([1]; first compound 8 µM) | relative viability (Masitinib + Trametinib; first compound 0.01 µM) | relative viability (Masitinib + Trametinib; first compound 0.03162 µM) | relative viability (Masitinib + Trametinib; first compound 0.1 µM) | relative viability (Masitinib + Trametinib; first compound 0.3162 µM) | relative viability (Masitinib + Trametinib; first compound 1 µM)
1 | NCI-H2009 | 1.03 | 1.09 | 1 | 1.02 | 0.99 | 0.591 | 0.654 | 0.646 | 0.616 | 0.606 | 0.629 | 0.644 | 0.717 | 0.677 | 0.63 | 0.29 | 0.239 | 0.296 | 0.26 | 0.268
2 | NCI-H1755 | – | 0.804 | 0.866 | 0.816 | 0.828 | – | 0.703 | 0.686 | 0.687 | 0.649 | 0.796 | 0.829 | 0.769 | 0.598 | 0.533 | 0.633 | 0.83 | 0.788 | 0.766 | 0.699
3 | HOP-62 | 0.659 | 0.88 | 1.09 | 1.08 | 0.898 | 0.759 | 0.866 | 0.923 | 0.929 | 0.837 | 0.445 | 0.5 | 0.471 | 0.48 | 0.512 | 0.394 | 0.361 | 0.349 | 0.365 | 0.375
4 | LOU-NH91 | 0.706 | 0.683 | 0.768 | 0.73 | 0.712 | 0.702 | 0.667 | 0.723 | 0.58 | 0.655 | 0.8 | 0.862 | 0.889 | 0.887 | 0.855 | 0.756 | 0.765 | 0.792 | 0.732 | 0.772
5 | ChaGo-K-1 | 1.33 | 1.12 | 1.51 | 1.05 | 1.12 | 0.779 | 0.537 | 0.603 | 0.695 | 0.538 | 0.407 | 0.389 | 0.424 | 0.418 | 0.351 | 0.972 | 0.852 | 0.986 | 0.909 | 0.906
6 | NCI-H23 | 0.524 | 0.423 | 0.597 | 0.463 | 0.465 | 0.49 | 0.572 | 0.617 | 0.575 | 0.559 | 0.226 | 0.228 | 0.22 | 0.221 | 0.235 | 0.305 | 0.368 | 0.469 | 0.375 | 0.354
7 | PC-3 [JPC-3] | 1.02 | 0.974 | 0.975 | 0.968 | 1.01 | 0.381 | 0.643 | 0.783 | 0.64 | 0.694 | 0.926 | – | 1.01 | 1.07 | 0.924 | 0.723 | 0.651 | 0.733 | 0.576 | 0.616
8 | NCI-H520 | 0.766 | – | 0.921 | 0.908 | 0.577 | 0.267 | 0.265 | 0.261 | 0.237 | 0.228 | 0.384 | 0.325 | 0.391 | 0.314 | 0.288 | 0.752 | 0.634 | 0.873 | 0.76 | 0.598
9 | NCI-H1666 | 0.91 | 1.17 | 1.03 | 0.744 | 0.832 | – | 0.861 | 0.921 | 0.792 | 0.833 | 0.677 | 0.771 | 0.737 | 0.766 | 0.824 | 0.807 | 0.893 | 0.873 | 0.565 | 0.788
10 | NCI-H1792 | 0.866 | 0.449 | 0.993 | 0.829 | 1.05 | 0.762 | 0.402 | 0.71 | 0.563 | 0.9 | 0.312 | 0.307 | 0.248 | 0.255 | 0.32 | 0.427 | 0.307 | 0.37 | 0.503 | 0.498
11 | NCI-H727 | 0.824 | 0.844 | 0.925 | 0.778 | 0.91 | 0.523 | 0.601 | 0.637 | 0.576 | 0.442 | 0.67 | – | 0.679 | – | 0.743 | 0.333 | 0.375 | 0.417 | 0.366 | 0.334
12 | HARA | 0.961 | 0.75 | 1.25 | 1.04 | 1.01 | – | 0.44 | 0.521 | 0.384 | 0.315 | 0.936 | 0.701 | 0.524 | 0.445 | 0.839 | 0.767 | 0.627 | 0.946 | – | 0.897
13 | NCI-H647 | 1.06 | 0.987 | 1.1 | 1.21 | 1.21 | 0.685 | 0.651 | 0.699 | 0.579 | 0.602 | 0.477 | 0.528 | 0.55 | 0.523 | 0.305 | 0.45 | 0.381 | 0.435 | 0.364 | 0.411
14 | NCI-H1650 | 0.958 | 1.09 | 0.876 | 0.862 | 1.02 | 0.58 | 0.478 | 0.719 | 0.499 | 0.543 | 0.539 | 0.901 | 0.525 | 0.488 | 0.432 | 0.48 | 0.54 | 0.479 | 0.493 | 0.527
15 | NCI-H2347 | 0.731 | 0.759 | 0.891 | 0.707 | 0.688 | 0.403 | 0.531 | 0.447 | 0.354 | 0.467 | 0.47 | 0.536 | 0.538 | 0.568 | 0.48 | 0.26 | 0.262 | 0.291 | 0.293 | 0.288
16 | LCLC-97TM1 | 0.27 | 0.31 | 0.394 | 0.288 | 0.238 | – | 0.534 | 0.559 | 0.568 | 0.516 | 0.419 | 0.304 | 0.343 | 0.411 | 0.379 | 0.184 | 0.19 | 0.19 | 0.231 | 0.186
